Tests used:
[1] = ferrets receiving 5mg/kg; cited from earlier work
[2] = Cytotoxicity in primary human keratinocytes (PHK); format: cell-based; conditions: HPV-18 secondary screen, PHKs
Procedure: (§1) Cytotoxicity assays: Concurrent assessment of cytotoxicity was also performed for each study in the same cell line and with the same compound exposure.
HPV cytotoxicity assay was performed at the time of viral harvest by scoring cells in a BioRad Automatic Cell Counter for cell viability.
(§2) For secondary assays, the amplification of HPV-18 DNA was determined in an organotypic squamous epithelial raft culture of PHKs. Whole genomic HPV-18 plasmids were generated in plasmid-transfected PHKs and developed into organotypic cultures as described. Based on the results of a 3-day toxicity assay, concentrations of test compound were added to a subset of raft cultures from day 6 through day 13 when the cultures were harvested. Similarly treated normal PHK raft cultures were also prepared to assess toxicity of uninfected tissue. One set of cultures were fixed in 10% buffered formalin, paraffin embedded and sectioned for in situ assay. Sections were stained with hematoxylin and eosin. Total DNA harvest from unfixed raft cultures was used to determine the HPV-18 copy number/per cell by qPCR. Inhibition was expressed as % of viral DNA copies relative to the untreated cultures.

[3] = test system: BK polyomavirus (BKPyV) Gardner strain; experiment: BKPyV qPCR genome copy assay in HFF cells; format: cell-based; conditions: Betapolyomavirus hominis
Procedure: (§3) John Cunningham polyomavirus (JCPyV) strains MAD-1 and MAD-4 and BK polyomavirus (BKPyV) Gardner strain were obtained from ATCC. COS-7 cells were obtained from ATCC and maintained according to ATCC-supplied protocols.
Primary assays for BKPyV were performed in 384-well plates containing monolayers of HFF cells. Compound dilutions ranging from 0.0032–100μM were prepared in plates containing cells which were subsequently infected at an MOI of 0.001. After a 7d incubation, total DNA was prepared using Extracta and genome copy number was quantified by qPCR using the primers and probe listed in S1 Table [18]. Plasmid pMP526 served as the DNA standard for quantification purposes. Compounds were confirmed in a similar assay in 96-well plates according to established laboratory protocols with the compounds added 1h […] to identify compounds that inhibit early stages of replication including adsorption and entry. Genome copy number was determined by methods described above.

[4] = Cytotoxicity in HFF cells, concurrent with BKPyV assays; format: cell-based; conditions: human
Procedure: (§4) Cytotoxicity assays: Concurrent assessment of cytotoxicity was also performed for each study in the same cell line and with the same compound exposure. For KSHV, cell viability was assessed with the CellTiter-Glo Luminescent Cell Viability Assay (Promega) using manufacturer’s protocol. Luminescence was quantified on a luminometer. Standard methods were used to calculate the 50% cytotoxic level (CC50). Cytotoxicity assay was performed in a manner analogous to KSHV above.

[5] = Cytotoxicity in BCBL-1 cells (CellTiter-Glo); format: cell-based; conditions: human
Procedure: as §4, with “(CC50).” for “(CC50). Cytotoxicity assay was performed in a manner analogous to KSHV above.”

[6] = Cytotoxicity in COS7 cells, concurrent with JCPyV assays; format: cell-based; conditions: African green monkey, COS-7 cells
Procedure: as §1
For KSHV, cell viability was assessed with the CellTiter-Glo Luminescent Cell Viability Assay (Promega) using manufacturer’s protocol. Luminescence was quantified on a luminometer. Standard methods were used to calculate the 50% cytotoxic level (CC50).
(§5) Cytotoxicity assay was performed in a manner analogous to KSHV above. Evaluation of compounds against JCPyV virus was done in COS7 cells with the plasmid pMP508 to provide a standard curve for quantification.

[7] = test system: JC polyoma virus MAD-4 strain; experiment: microbe, parasite or virus in culture; format: cell-based; conditions: Polyomavirus sp., COS-7, JCPyV, COS-7 cells
Procedure: as §3, §5
Viral DNA was quantified (S1 Table) together with the plasmid pMP508 to provide a standard curve for absolute quantification. Secondary assays against JCV were also performed in COS7 cells by methods similar to those for BK virus to identify if verdinexor inhibited adsorption or entry of the virus.

[8] = Cytotoxicity in GPL cells; format: cell-based; conditions: primary guinea pig lung cells (GPL), Guinea pig CMV primary screen
Procedure: Cytotoxicity assays: Concurrent assessment of cytotoxicity was also performed for each study in the same cell line and with the same compound exposure. For HCMV cytotoxicity assay was determined via neutral red uptake assay and was conducted as reported previously in HFF cells. Optical densities were determined at 550nm. Cytotoxicity assay was performed in a manner analogous to HCMV (see above).

KSHV strain BCBL-1 = experiment: KSHV qPCR of viral DNA in PMA-induced BCBL-1 cells; format: cell-based, Kaposi's sarcoma-associated herpesvirus; conditions: Human gammaherpesvirus 8, BCBL1, KSHV
Procedure: KSHV strain BCBL-1 was obtained as latently infected BCBL-1 cells through the NIH AIDS Research and Reference Reagent Program. BCBL-1 cells were maintained in growth medium consisting of RPMI 1640 supplemented with 10% FBS, penicillin, gentamicin, and l-glutamine.
To quantify virus, compound was diluted from 0.008–100μM and added to BCBL-1 cells induced to undergo a lytic infection by the addition of 100ng/ml phorbol 12-myristate 13-acetate (PMA) (Promega). After 7d, total DNA was prepared, and viral DNA was quantified by qPCR (see S1 Table for primer/probe sequences). Plasmid pMP218 containing a DNA sequence corresponding to nucleotides 14120–14182 (AF148805.2) was used to provide absolute quantification of viral DNA and EC50 [11].

HPV-18 = HPV-18 DNA amplification in organotypic raft culture of PHKs (qPCR); format: cell-based, human papillomavirus
Procedure: HPV-11 and -18 were tested in HEK293 cells and primary human keratinocytes (PHK), respectively. PHKs were isolated from neonatal foreskins following circumcision according to IRB-approved protocols at UAB. They were grown in keratinocyte serum-free medium (Life Technologies) with mitomycin C-treated J2 feeder cells (Swiss 3T3 J2 fibroblasts; Elaine Fuchs, Rockefeller University). HEK 293 cells were maintained under standard conditions.
as §2

SMILES: O=C(C=Cn1cnc(-c2cc(C(F)(F)F)cc(C(F)(F)F)c2)n1)NNc1ccccn1 (stereo in doubt) [verdinexor, (E)-3-[3-[3,5-bis(trifluoromethyl)phenyl]-1,2,4-triazol-1-yl]-N'-pyridin-2-ylprop-2-enehydrazide]
- half life [1]: 2 h
- CC50 [2]: 8.3 µM
- EC50 ([3]; primary screen): 7.62 µM
- EC50 ([3]; secondary screen, compound added 1h post-infection): 2.29 µM
- CC50 ([4]; BKPyV primary screen): 10 µM
- CC50 ([4]; BKPyV secondary screen): 9.38 µM
- CC50 ([5]; KSHV primary screen): 2.76 µM
- CC50 ([5]; KSHV secondary screen): 1.4 µM
- CC50 ([6]; JCPyV primary screen): 10 µM
- CC50 ([6]; JCPyV secondary screen): 73.3 µM
- EC50 ([7]; primary screen): 7.45 µM
- EC50 ([7]; secondary screen): 3.14 µM
- CC50 [8]: 2 µM
- EC50 (KSHV strain BCBL-1; primary screen): < 0.8 µM
- EC50 (KSHV strain BCBL-1; secondary screen): 0.27 µM
- EC50 (HPV-18; Human papillomavirus): 8.3 µM
- efficacy against HPV-18 (HPV-18; secondary screen, PHKs): did not show efficacy
